Here are results for 1 compound from US11401516B2, “Channel modulators” (AUCKLAND UNISERVICES LIMITED, priority 2014, dated 2022).

This assay has as its system Cx43 hemichannel and pannexin channel mediated ATP release from hCMVEC cells. The assay is described as follows: In vitro ischaemia injury ATP assay. To be noted: for ATP release, percentage of the injury control: 2-hour injury. Format: cell-based, human. The procedure:
Using an in vitro ischemia injury model, the Cx43 hemichannel and pannexin channel mediated ATP release was differentiated using the connexin hemichannel blocking mimetic peptide5 at 100 μM concentration (S. J. O'Carroll, et al., Cell communication & adhesion 15, 27 (May, 2008)) and 1 mM Probenecid (W. R. Silverman et al., The Journal of biological chemistry 284, 18143 (Jul. 3, 2009)).
Human cerebral microvascular endothelial cells (hCMVEC) were trypsinised (TrypLE Express, Life technologies) and plated at a density of 0.025×10^6 cells per well in a collagen-coated 12-well plate (1 μg/cm2) a day prior to the experiment. Cells were incubated in culture medium overnight. Hypoxic, acidic, ion-shifted Ringer injury solution that mimics ionic concentrations and acid-base shifts of the interstitial space in hypoxic-ischemic brains (A. Bondarenko, et al., Glia 34, 143 (Apr. 15, 2001)) was used to trigger hemichannel opening. The injury solution (in mM): 38 NaCl, 13 NaHCO3, 3 Na-gluconate, 65 K-gluconate, 38 NMDG-Cl, 1 NaH2PO4, 1.5 MgCl2, was bubbled in N2 gas (>99% purity, 20 L/min) for 5 minutes and pH adjusted to 6.6 using 5 M HCl. Control solution that mimics physiological conditions contained (in mM): 124 NaCl, 3 KCl, 26 NaHCO3, […], 1 NaH2PO4, 1.3 CaCl2, 1.5 MgCl2, and 10 Glucose, and pH 7.4 was adjusted using 5 M HCl (Bondarenko, 2001). […] Following a 2-hour injury the solutions were immediately placed on ice. In the injury and reperfusion model, hCMVEC cells were incubated in 500 μL of normal solution or injury solution for 2 hours at 37° C. in 95% O2 and 5% CO2. Following 2 hour injury, the solutions were discarded and replaced with 500 μL of the normal solution, or Tonabersat (10 μM) dissolved in normal solution, and were incubated for 2 hours at 37° C. in 95% O2 and 5% CO2. These solutions were also then immediately placed on ice. Peptide5 (100 μM)+/−Probenecid (1 mM) were used as controls for both injury and injury-reperfusion models. ATP concentration in the samples was determined using a Luciferin/luciferase bioluminescence reaction (ATP Determination Kit, Molecular Probes) and detected using a luminescence plate reader (VICTOR X, Perkin Elmer #2030-0010). Standard curves were generated in each experiment from an ATP standard (500 nM) to quantify the concentration of ATP in the test samples. The data is presented as mean±standard error relative to the injury or injury-reperfusion control. Statistically significant differences between samples were identified using one-way analysis of variance and Tukey's multiple comparisons test.

`CC(=O)c1ccc2c(c1)[C@H](NC(=O)c1ccc(F)c(Cl)c1)[C@H](O)C(C)(C)O2` [Tonabersat, N-[(3S,4S)-6-acetyl-3-hydroxy-2,2-dimethyl-3,4-dihydrochromen-4-yl]-3-chloro-4-fluorobenzamide]: the “difference between CBX and 10 μM Tonabersat in 1 mM Probenecid” value was 14.9±4%. In addition, under “0.1 μM Tonabersat in combination with 1 mM Probenecid”, the “ATP release, percentage of the injury control” value (from here on “ATP release, percentage”) stood at 85.9±2.4%. Further, under “0.1 μM to 100 μM Tonabersat in the absence of 1 mM Probenecid”, the “ATP release from hCMVEC cells” value is “did not reduce ATP release”. For the same compound, the “ATP release, percentage” value (1 μM Tonabersat in combination with 1 mM Probenecid) is 75.9±2.3%. In addition, for the setting “10 μM Tonabersat in combination with 1 mM Probenecid”, the “ATP release, percentage” value is 58.5±1.9%. For the setting “100 μM Tonabersat in combination with 1 mM Probenecid”, the “ATP release, percentage” value was determined as 70.5±3.9%. The “difference in inhibition, 10 μM versus 100 μM Tonabersat” value (each with 1 mM Probenecid) was 12.1±3.2%.
